# Experimental data reported in patent US20060263802A1 (priority 2003, published 2006).
# How the values were obtained:
# Type in all cases: binding
# [1] = system: human monoclonal antibody CR57
# [2] = system: human monoclonal antibody CRJB
# [3] = system: human monoclonal antibody CR57; remark: listed apart in the source
# [4] = system: human monoclonal antibody CRJA
# [5] = system: human monoclonal antibody CRJB; remark: listed apart in the source
# [6] = system: human monoclonal antibody CRJA; remark: listed apart in the source
Sequence,Binding of CR57 (10 μg/ml) to looped/cyclic peptide (PEPSCAN-ELISA signal) [1],Binding of CRJB (10 μg/ml) to looped/cyclic peptide (PEPSCAN-ELISA signal) [2],Binding of CR57 to linear peptide (PEPSCAN-ELISA signal) [3],Binding of CRJA to linear peptide (PEPSCAN-ELISA signal) [4],Binding of CRJB to linear peptide (PEPSCAN-ELISA signal) [5],Binding of CRJA (10 μg/ml) to looped/cyclic peptide (PEPSCAN-ELISA signal) [6],Binding of CR57 (10 μg/ml) to looped/cyclic peptide (PEPSCAN-ELISA) [1],Binding of CRJB (10 μg/ml) to looped/cyclic peptide (PEPSCAN-ELISA) [2],Binding of CRJA (10 μg/ml) to looped/cyclic peptide (PEPSCAN-ELISA) [6],other results
RSLHSRVFPSGKCSG,102,93,87,125,141,123,,,,
MSCDIFTNSRGKRAS,71,73,46,71,110,49,,,,
GFSYMELKVGYILAI,77,57,65,91,111,71,,,,
ACKLKLCGVLGLRLM,,,148,79,117,,111,92,71,binding of antibody CR57 to linear peptide (PEPSCAN OD) [3]: bound; strength of binding of CR57 (OD value compared with the other peptides / twice the average value) [3]: lower than twice the average value
TIWMPENPRLGMSCD,97,82,69,93,106,102,,,,
VNLHDFRSDEIEHLV,,,83,103,129,,97,56,84,
SFRRLSHLRKLVPGF,,,92,75,110,,143,87,320,binding of antibody CRJA to looped/cyclic peptide (PEPSCAN OD) [6]: clearly bound
ADAHYKSVRTWNEIL,,,56,93,100,,69,82,90,
STNHDYTIWMPENPR,72,74,60,77,112,51,,,,
SVSFRRLSHLRKLVP,,,64,101,123,,94,84,98,
AGDPRYEESLHNPYP,64,54,40,83,101,58,,,,
PSTVFKDGDEAEDFV,,,,,,,,,,Binding of CR57 to looped/cyclic peptide (PEPSCAN-ELISA signal) [1]: 118; Binding of CRJB to looped/cyclic peptide (PEPSCAN-ELISA signal) [2]: 101; Binding of human monoclonal antibody CR57 to linear peptide (PEPSCAN-ELISA signal) [3]: 104; Binding of human monoclonal antibody CRJA to linear peptide (PEPSCAN-ELISA signal) [4]: 105; Binding of human monoclonal antibody CRJB to linear peptide (PEPSCAN-ELISA signal) [5]: 143; Binding of CRJA to looped/cyclic peptide (PEPSCAN-ELISA signal) [6]: 113
YPDYRWLRTVKTTKE,88,73,72,88,97,92,,,,
VEVHLPDVHNQVSGV,,,,,,,,,,Binding of CR57 to looped/cyclic peptide (PEPSCAN-ELISA signal) [1]: 138; Binding of CRJB to looped/cyclic peptide (PEPSCAN-ELISA signal) [2]: 104; Binding of human monoclonal antibody CR57 to linear peptide (PEPSCAN-ELISA signal) [3]: 106; Binding of human monoclonal antibody CRJA to linear peptide (PEPSCAN-ELISA signal) [4]: 117; Binding of human monoclonal antibody CRJB to linear peptide (PEPSCAN-ELISA signal) [5]: 141; Binding of CRJA to looped/cyclic peptide (PEPSCAN-ELISA signal) [6]: 120
KLVPGFGKAYTIFNK,,,47,73,114,,54,71,71,
FKDGDEAEDFVEVHL,,,,,,,,,,Binding of CR57 to looped/cyclic peptide (PEPSCAN-ELISA signal) [1]: 106; Binding of CRJB to looped/cyclic peptide (PEPSCAN-ELISA signal) [2]: 80; Binding of human monoclonal antibody CR57 to linear peptide (PEPSCAN-ELISA signal) [3]: 65; Binding of human monoclonal antibody CRJA to linear peptide (PEPSCAN-ELISA signal) [4]: 85; Binding of human monoclonal antibody CRJB to linear peptide (PEPSCAN-ELISA signal) [5]: 76; Binding of CRJA to looped/cyclic peptide (PEPSCAN-ELISA signal) [6]: 97
NVLIPEMQSSLLQQH,,,72,92,120,,97,99,110,
LESSVIPLVHPLADP,,,90,110,128,,120,128,114,
HFRPTPDACRAAYNW,65,71,46,93,113,62,,,,
GLYKSLKGACKLKLC,,,94,91,129,,86,97,100,
TTKSVSFRRLSHLRK,,,66,94,118,,92,72,97,
VVTEAENYTNFVGYV,80,62,87,90,106,58,,,,
FPIYTILDKLGPWSP,65,63,42,88,105,57,,,,
FVGYVTTTFKRKHFR,117,82,70,79,111,102,,,,
PSGKCSGVAVSSTYC,58,48,56,106,112,73,,,,
TWVAMQTSNETKWCP,,,78,100,118,,87,89,84,
YVTTTFKRKHFRPTP,146,111,85,84,106,137,,,,
FTCTGVVTEAENYTN,123,96,83,91,125,96,,,,
AEDFVEVHLPDVHNQ,,,,,,,,,,Binding of CR57 to looped/cyclic peptide (PEPSCAN-ELISA signal) [1]: 117; Binding of CRJB to looped/cyclic peptide (PEPSCAN-ELISA signal) [2]: 90; Binding of human monoclonal antibody CR57 to linear peptide (PEPSCAN-ELISA signal) [3]: 123; Binding of human monoclonal antibody CRJA to linear peptide (PEPSCAN-ELISA signal) [4]: 114; Binding of human monoclonal antibody CRJB to linear peptide (PEPSCAN-ELISA signal) [5]: 138; Binding of CRJA to looped/cyclic peptide (PEPSCAN-ELISA signal) [6]: 101
